Measurements reported in the supplement of paper PMC13380429.

Tests used:
Details in all cases: 72 h
Vero E6 [1] = assay: relative viability EC50 (midpoint between 100% and the lowest measured viability); higher = less toxic
Caco-2 [2] = assay: as above
Calu-3 [3] = assay: as above
U2OS [4] = assay: as above
HepG2 [5] = assay: as above
Vero E6 [6] = assay: drug sensitivity score (DSS) for viability; higher = more toxic; extreme values may be limits of the assay
Caco-2 [7] = assay: as above
Calu-3 [8] = assay: as above
U2OS [9] = assay: as above
HepG2 [10] = assay: as above
Vero E6 [11] = assay: cell viability relative to DMSO; higher = less toxic
Caco-2 [12] = assay: as above
Calu-3 [13] = assay: as above
U2OS [14] = assay: as above
HepG2 [15] = assay: as above

Row | Structure (SMILES) | relative viability EC50 (Vero E6 [1]) [µM] | relative viability EC50 (Caco-2 [2]) [µM] | relative viability EC50 (Calu-3 [3]) [µM] | relative viability EC50 (U2OS [4]) [µM] | relative viability EC50 (HepG2 [5]) [µM] | drug sensitivity score (Vero E6 [6]) | drug sensitivity score (Caco-2 [7]) | drug sensitivity score (Calu-3 [8]) | drug sensitivity score (U2OS [9]) | drug sensitivity score (HepG2 [10]) | cell viability (Vero E6 [11]; 1 nM) [%] | cell viability (Vero E6 [11]; 10 nM) [%] | cell viability (Vero E6 [11]; 100 nM) [%] | cell viability (Vero E6 [11]; 1000 nM) [%] | cell viability (Vero E6 [11]; 10000 nM) [%] | cell viability (Caco-2 [12]; 1 nM) [%] | cell viability (Caco-2 [12]; 10 nM) [%] | cell viability (Caco-2 [12]; 100 nM) [%] | cell viability (Caco-2 [12]; 1000 nM) [%] | cell viability (Caco-2 [12]; 10000 nM) [%] | cell viability (Calu-3 [13]; 1 nM) [%] | cell viability (Calu-3 [13]; 10 nM) [%] | cell viability (Calu-3 [13]; 100 nM) [%] | cell viability (Calu-3 [13]; 1000 nM) [%] | cell viability (Calu-3 [13]; 10000 nM) [%] | cell viability (U2OS [14]; 1 nM) [%] | cell viability (U2OS [14]; 10 nM) [%] | cell viability (U2OS [14]; 100 nM) [%] | cell viability (U2OS [14]; 1000 nM) [%] | cell viability (U2OS [14]; 10000 nM) [%] | cell viability (HepG2 [15]; 1 nM) [%] | cell viability (HepG2 [15]; 10 nM) [%] | cell viability (HepG2 [15]; 100 nM) [%] | cell viability (HepG2 [15]; 1000 nM) [%] | cell viability (HepG2 [15]; 10000 nM) [%]
1 | COc1ccc(-c2coc3cc(O)cc(O)c3c2=O)cc1 [4-methylgenistein] | > 10 | > 10 | > 10 | > 10 | > 10 | 0 | 0 | 0 | 0 | 0 | 94 | 95 | 101 | 88.5 | 102 | 98.7 | 98.1 | 105 | 104 | 96 | 113 | 99 | 101 | 106 | 91 | 99.3 | 94.1 | 99.3 | 98.8 | 97.1 | 106 | 109 | 102 | 92.6 | 95.2
2 | CC(C)OC(=O)N1CCC(Oc2ncnc3c2cnn3-c2ccc(S(C)(=O)=O)cc2F)CC1 [APD668] | > 10 | > 10 | > 10 | > 10 | > 10 | 0 | 0 | 0 | 0 | 1 | 90.5 | 95.2 | 100 | 95.7 | 105 | 106 | 98.4 | 93.6 | 96.1 | 89.1 | 106 | 107 | 102 | 108 | 92.7 | 99.4 | 101 | 97.4 | 106 | 97.5 | 103 | 102 | 96.2 | 98.6 | 77.1
3 | N=C(N)NCCN1CCCCCCC1 [guanethidine] | > 10 | > 10 | > 10 | > 10 | > 10 | 0 | 0 | 0 | 0 | 0 | 105 | 97.2 | 95.2 | 109 | 101 | 92.3 | 96.6 | 91 | 91.8 | 101 | 104 | 102 | 99.6 | 95 | 97.3 | 102 | 96.6 | 99.7 | 98.8 | 103 | 99.3 | 102 | 96.4 | 106 | 93.6
4 | C[C@]12CCC(=O)C=C1CC[C@@H]1[C@@H]2C(=O)C[C@]2(C)C(=O)CC[C@@H]12 [adrenosterone] | > 10 | > 10 | > 10 | > 10 | > 10 | 0 | 0 | 0 | 0 | 0 | 95.3 | 100 | 99.3 | 97.5 | 97.1 | 107 | 96 | 98 | 95 | 97.5 | 106 | 92.5 | 100 | 98.1 | 96.4 | 103 | 95 | 98.2 | 97.4 | 99.1 | 98.6 | 98.8 | 94.5 | 97.7 | 97.5
5 | CSc1cc2c(cc1C(F)(F)F)N(C(=O)Nc1cccnc1)CC2 | > 10 | > 10 | > 10 | > 10 | > 10 | 0 | 0 | 0 | 0 | 0 | 102 | 104 | 96.5 | 102 | 102 | 103 | 101 | 95.5 | 97.5 | 97.9 | 106 | 83.3 | 93.2 | 91.2 | 107 | 100 | 99.6 | 108 | 98.9 | 101 | 109 | 95.6 | 85 | 99 | 94.7
6 | COc1ccc(-c2ccc3cc(C(=O)O)ccc3c2)cc1C12CC3CC(CC(C3)C1)C2 [adapalene] | > 10 | > 10 | > 10 | > 10 | > 10 | 0 | 0 | 0.1 | 0 | 0 | 98.1 | 94.6 | 95.4 | 93.3 | 115 | 95.3 | 99.6 | 97.6 | 99.4 | 93.3 | 98.6 | 101 | 101 | 101 | 86.2 | 94.5 | 98.2 | 94.6 | 99.4 | 98.4 | 102 | 96.9 | 109 | 104 | 112
7 | O=[N+]([O-])/N=C1\NCCN1Cc1ccc(Cl)nc1 [imidacloprid] | > 10 | > 10 | > 10 | > 10 | > 10 | 0 | 0 | 0 | 0 | 0 | 95.1 | 95.8 | 96.7 | 98 | 96.5 | 104 | 94.6 | 99.8 | 88.6 | 104 | 103 | 98.5 | 103 | 98.8 | 106 | 97.4 | 95.7 | 103 | 92.3 | 94.4 | 98.2 | 109 | 99.7 | 98.9 | 93.1
8 | CCOC(=O)c1c(/C(C#N)=C\N)c2ccc(Cl)c(Cl)c2n1C [KH-CB19] | > 10 | > 10 | > 10 | > 10 | > 10 | 0 | 0 | 0 | 0 | 0 | 96.2 | 104 | 98.4 | 103 | 92 | 101 | 93.6 | 103 | 99.2 | 92.4 | 98.2 | 97.7 | 96.6 | 101 | 101 | 102 | 99.6 | 103 | 96.5 | 107 | 99.8 | 105 | 98.7 | 102 | 93.2
